Test system: AMPA receptor
Test: rat cortical slice, responses to AMPA (apparent equilibrium constant from righthand shift in concentration-response curve)
Assay type: cell-based
Conditions: righthand shift in the AMPA concentration-response curve
Protocol: The compounds useful in this invention potently and selectively block responses to NMDA and/or AMPA in a brain slice from rat cortex, and inhibit the binding of agonists and antagonists to the strychnine-insensitive site present on the NMDA receptor and/or AMPA binding to rat forebrain membranes.
The effects of compounds of the invention on responses to NMDA and AMPA were assessed using the rat cortical slice as described by Wong et al., Proc. Natl. Acad. Sci. USA, 1986, 83, 7104. The apparent equilibrium constant (Kb) was calculated from the righthand shift in the NMDA or AMPA concentration-response curves produced by the compound under test.

**Q.** For `O=C1Nc2cc(Cl)ccc2CC1[N+](=O)[O-]` (stereo not shown) [Example 2, 7-Chloro-3-nitro-3,4-dihydroquinolin-2-one], which Kb is on record?
**A.** < 150 µM

Reference: patent US5376748A, “Nitroquinolone derivatives” (Merck Sharp & Dohme Limited, priority 1992, dated 1994)
